Test results from publication PMC6954215, “Structures of β-glycosidase LXYL-P1-2 reveals the product binding state of GH3 family and a specific pocket for Taxol recognition” (Communications Biology, 2020).

Experiments:
LXYL-P1-2 = molecular target: T1, LXYL-P1-2 (Lentinula edodes, UniProt G8GLP2, E529Q); experiment: X-ray crystallography, […] Å; assay type: binding; conditions: co-crystallised with XDT, cleaved in crystal; product complex with xylose; 0.1 M Hepes pH 7.5, 16 °C
T1 construct: expressed in Pichia pastoris GS115 from pPIC3.5K-lxyl-p1-2; KEX2 cleavage after Arg35, mature N-terminus Asp36; endoglycosidase-treated for crystals; tetramer

[1] = molecular target: β-xylosidase/glucosidase LXYL-P1-2 (Lentinula edodes); experiment: crystal structure; native crystal, endoglycosidase-treated protein at 10 mg/ml, hanging drop at 16 °C, 13% PEG3350, 0.1 M Tris-HCl pH 8.5, 0.2% MgCl2; 2.4 Å; tetramer in the asymmetric unit
[2] = molecular target: β-xylosidase/glucosidase LXYL-P1-2 (Lentinula edodes); experiment: SEC; molecular weight by gel filtration; conditions not given

stoichiometry N [1] | stoichiometry N [2] | Molecule | X-ray crystallography, 2.27 Å (LXYL-P1-2)
 |  | CC(=O)O[C@@]12CO[C@@H]1C[C@H](O)[C@@]1(C)C(=O)[C@H](O)C3=C(C)[C@@H](OC(=O)[C@H](O)[C@@H](NC(=O)c4ccccc4)c4ccccc4)C[C@@](O)([C@@H](OC(=O)c4ccccc4)[C@H]21)C3(C)C [10-deacetyltaxol] | The electron density clearly shows the existence of xylose and DT
 |  | OC1OC[C@@H](O)[C@H](O)[C@H]1O (stereo partly shown) [xylose] | The electron density clearly shows the existence of xylose and DT
4 | 4 | β-xylosidase/glucosidase LXYL-P1-2 (enzyme) | 
